{
  "source": "patent US10716829B2",
  "about": "“Method and composition for treatment of hair loss” (NATIONAL HEALTH RESEARCH INSTITUTES, priority 2015, dated 2020)",
  "test_system": "bulge keratinocytes (CD34+α6+)",
  "assay": "Colony forming assay on sorted CD34+α6+ bulge keratinocytes in absence or presence of DAPT",
  "format": "cell-based, mouse",
  "conditions": "10 μM for 7 days, cultured with feeders, vs DMSO-treated cultures; keratinocytes from 8-week-old wild type mice",
  "protocol": "FIG. 5 is a graph showing quantification of a colony forming assay on sorted CD34+α6+ keratinocytes in the absence or presence of DAFT. Equal numbers of sorted CD34±α6+ keratinocytes from 8-week-old wild type mice were cultured with feeders and treated with either DMSO as a vehicle control or 10 μM DAFT for 7 days. […] P<0.05, **:P<0.01.\nWe investigated whether the DSB signal seen in Pofut1/Tgfb3-Cre hair follicles was caused by aberrant cell proliferation, which has been reported in the case of oncogene-induced DNA damage checkpoint responses. To test this hypothesis, bulge keratinocytes were isolated from 8 weeks old wild type mice by FACS and cultured in the absence or presence of a γ-secretase inhibitor DAPT (Notch signaling inhibitor).",
  "data": [
    {"compound": "C[C@H](NC(=O)Cc1cc(F)cc(F)c1)C(=O)N[C@H](C(=O)OC(C)(C)C)c1ccccc1", "note": "[DAPT]", "values": [
      {"measurement": "numbers of colonies", "result": "increases"},
      {"measurement": "size of colonies", "result": "increases"}
    ]}
  ]
}
